{
  "source": "patent US20060052357A1",
  "about": "“Organometallic anti-tumour agent” (priority 2001, published 2006)",
  "key": {"[1]": {"test_system": "B-16 melanoma tumor", "assay": "B-16 melanoma tumor, MOC.melphalan and MOC.tegafur (Example 13)", "type": "in vivo, mice", "conditions": "Dose 5 mg/kg (table), day 16", "procedure": "MOC.tegafur was administered in a physiological solution. The animals in the control group likewise received administration of the solutions (without products). On day 16, the mice were sacrificed by decapitation, tumor tissue was removed for histological examination, and the tumor was investigated for antitumor activity (table 23). The tumors were fixed with 10% formalin, which was followed by embedding in paraffin. The section thickness of 5 μm were stained with hematoxylin-eosinome. The microscopy was carried out with a Leica Galen microscope."}, "[2]": {"assay": "Toxicity investigations", "type": "in vivo, five laboratory species", "conditions": "5 mg/kg of body weight", "procedure": "The toxicity of the complex (C5H7O2)2—Cu—C13H18Cl2N2O2 of the invention was determined on five laboratory species in various tests. […] It was additionally possible to show in the investigations that (C5H7O2)2—Cu—C13H18Cl2N2O2 induces no resistance even on prolonged administration."}, "[3]": {"test_system": "P388/ph", "assay": "Drug-resistant leukemia P388/ph (rubomycin-resistant) survival", "type": "in vivo, mice", "conditions": "5 mg/kg, days 1-7", "description": "The therapeutic efficacy was investigated on the leukemia tumor strains L-1210, P-388, and P-388 strains specifically obtained for drug resistance. The lifespan of the animals was set at 60 days in this case. Drug-resistant tumor were obtained by successive transplantation of the leukemia P-388 with ascites cells taken from mice which had been treated with rubomycin (strain P388/ph), vincristine (P388/vcr) and zisplatin (P388/cPt).\nResistance to the products mentioned appear in the 8th, 6th and 4th generation.\nThe products were administered intraabdominally. Cu(acac)2M was dissolved in 10% Twin 80."}, "[4]": {"test_system": "B-16 melanoma tumor", "assay": "B-16 melanoma in Black-line mice (Example 6)", "type": "in vivo", "procedure": "After transplantation of the B-16 melanoma tumor to Black-line mice. (cell suspension with 10×10^6 cells/ml), MOC.melphalan was administered intraabdominally in a dosage of 5 mg/kg in 0.3 ml of 10% DMSO solution on days 3, 5 and 9. The animals were sacrificed on day 21 of the investigation and underwent histological, morphological examination (see table 9).\nAfter transplantation of the B-16 melanoma tumor into black-line mice (cell suspension with 10×10^6 cells/ml), the substance was administered intraabdominally in a dosage of 0.1 mg/animal in 0.3 ml of 10% DMSO solution on days 3, 5 and 9. The animals were sacrificed on day 16 of the investigation and underwent histological, morphological examination (see table 10, FIGS. 1, 2). The DNA concentration in the tumor cells was determined by spectrophotometry after electrophoresis. (Table 10, FIG. 3)."}, "[5]": {"assay": "Solubility and stability in air"}, "[6]": {"test_system": "tumor cell cultures (KML)", "assay": "Suppression of cell proliferation in tumor cell cultures (KML)", "type": "cell-based, mice", "conditions": "incubation 24 hours", "procedure": "The effect of the substances MOC.melphalan and MOC.tegafur of the invention on the proliferative activity, morphology and protein synthesis was investigated on tumor cell cultures (KML). This took place with the mice separated out of the melanoma-16 line. 80 000 cells/ml were distributed in 3 ml of DMEM with the addition of embryonic calf serum, 200 μ/mol of glutamine and antibiotic. After cultivation of the cells at a temperature of 37° C. for 24 hours (logarithmic cell growth phase), the MOC substances were added in the concentration of 10 and 100 μg/ml. After incubation for 24 hours, the number of live cells was determined. In parallel, the fixed specimens of the cells were prepared for morphological analysis."}, "[7]": {"test_system": "C-180 sarcoma", "assay": "Antitumor activity for C-180 sarcoma, intraperitoneal", "type": "in vivo", "conditions": "5 mg/kg intraperitoneal", "procedure": "4. Antitumor Activity for C-180 Sarcoma\nThe results of series of experiments in which the stated active ingredient was administered intra-peritoneally in the stated dosage in physiological saline solution are shown in table 5 below."}, "[8]": {"test_system": "adenocarcinoma", "assay": "Adenocarcinoma transplanted after administration of the product", "type": "in vivo, mice", "conditions": "day 21", "procedure": "3. Antitumor Activity for Adenocarcinoma Transplanted After Administration of the Product.\nThe active ingredient of the invention was administered intravenously in the dosage stated in the table 4 days in succession in physiological saline solution of 0.3 ml each time. The adenocarcinoma was then implanted in the Balb mice. 21 days after the tumor was transplanted, the animals were sacrificed and the weight and size of the tumor recorded. The animals received no other drugs during the experiment and were kept with a normal feed ration."}, "[9]": {"test_system": "S-180 sarcoma tumor", "assay": "S-180 sarcoma in white crossbred mice (Example 7)", "type": "in vivo", "conditions": "day 21", "procedure": "After transplantation of the S-180 sarcoma tumor into white crossbred mice, the animals received the substance MOC.melphalan by intraabdominal administration in a dosage of 1 mg/kg in 0.3 ml of 10% DMSO solution on days 3, 5 and 9. The animals were sacrificed on day 21 of the investigation and underwent histological, morphological examination (table 11).\nAfter transplantation of the S-180 sarcoma tumor into white crossbred mice, the animals received MOC.melphalan and melphalan by intraabdominal administration in a dosage of 5 mg/kg in 0.3 ml of 10% DMSO solution on days 3, 5, 7 and 9. The animals were sacrificed on day 21 of the investigation and underwent histological, morphological examination (table 12).\nAfter transplantation of the S-180 sarcoma tumor into white crossbred mice, the animals received MOC.melphalan and melphalan by intraabdominal administration in a dosage of 5 mg/kg in 0.3 ml of 10% DMSO solution on days 2, 4, 6, 8 and 10. The animals were sacrificed on day 21 of the investigation and underwent histological, morphological examination (table 13)."}, "[10]": {"conditions": "5 mg/kg i.v. 4 days before implantation"}},
  "data": [
    {"smiles": "CC(=O)C=C(C)[O-].CC(=O)C=C(C)[O-].NC(Cc1ccc(N(CCCl)CCCl)cc1)C(=O)O.[Cu+2]", "note": "(stereo not drawn) [MOC.melphalan, (C5H7O2)2—Cu—C13H18Cl2N2O2]", "values": [
      {"measurement": "MI (mitosis index)", "setting": "[1]; control 4.22", "result": 0.64},
      {"measurement": "Percent inhibition", "setting": "[1]; intraabdominal days 3, 5, 9", "result": 77.71, "unit": "%"},
      {"measurement": "Tumor weight", "setting": "[1]; intraabdominal days 3, 5, 9, control 3.22", "result": 0.74, "unit": "g"},
      {"measurement": "changes in organs and tissues", "setting": "[2]", "result": "no specific changes"},
      {"measurement": "changes in the peripheral blood count", "setting": "[2]", "result": "no serious changes"},
      {"measurement": "effects on renal and hepatic function", "setting": "[2]", "result": "no pathological effects"},
      {"measurement": "ILS %", "setting": "[3]", "result": 189, "unit": "%"},
      {"measurement": "Number of surviving animals/number of animals in group", "setting": "[3]", "result": "2/6"},
      {"measurement": "Percentage inhibition", "setting": "[4]; 0.1 mg/animal intraabdominal days 3, 5, 9, day 16", "result": 78, "unit": "%"},
      {"measurement": "Average tumor mass", "setting": "[4]; 0.1 mg/animal intraabdominal days 3, 5, 9, day 16, control 3.22", "result": 0.83, "unit": "g"},
      {"measurement": "mitosis index", "setting": "[4]; 0.1 mg/animal, day 16, control 4.2", "result": 0.6},
      {"measurement": "Percentage inhibition", "setting": "[4]; 5 mg/kg intraabdominal days 3, 5, 9, day 21", "result": 100, "unit": "%"},
      {"measurement": "Tumor weight", "setting": "[4]; FIG. 1, single black-line mouse after treatment, control mouse 3.15 g", "result": 0.3, "unit": "g"},
      {"measurement": "DNA", "setting": "[4]; tumor cells, 0.1 mg/animal, day 16, control 4.3", "result": 0.8, "unit": "mg/g"},
      {"measurement": "solubility in water", "setting": "[5]", "result": "poor solubility"},
      {"measurement": "Suppression of growth cells", "setting": "[6]; 10 μg/ml", "result": 30, "unit": "%"},
      {"measurement": "Suppression of growth cells", "setting": "[6]; 100 μg/ml", "result": 95, "unit": "%"},
      {"measurement": "% inhibition", "setting": "[7]", "result": 100, "unit": "%"},
      {"measurement": "Mass of the tumor", "setting": "[7]; control 2.8", "result": "no tumor"},
      {"measurement": "% inhibition (mass of the tumor)", "setting": "[8]; [10]", "result": 80, "unit": "%"},
      {"measurement": "% inhibition (size of the tumor)", "setting": "[8]; [10]", "result": 82.5, "unit": "%"},
      {"measurement": "Size of the tumor", "setting": "[8]; 5 mg/kg i.v. 4 days before implantation, control 7.9", "result": 1.38, "unit": "cm^3"},
      {"measurement": "Mass of the tumor", "setting": "[8]; 5 mg/kg i.v. 4 days in succession before implantation, control 4.46", "result": 0.91, "unit": "g"},
      {"measurement": "Percentage inhibition", "setting": "[9]; 1 mg/kg intraabdominal days 3, 5, 9", "result": 100, "unit": "%"},
      {"measurement": "Percentage inhibition", "setting": "[9]; 5 mg/kg intraabdominal days 2, 4, 6, 8, 10", "result": 49, "unit": "%"},
      {"measurement": "Average tumor mass", "setting": "[9]; 5 mg/kg intraabdominal days 2, 4, 6, 8, 10, control 3.9 ± 0.5", "result": "2.0 ± 0.7", "unit": "g"},
      {"measurement": "Percentage inhibition", "setting": "[9]; 5 mg/kg intraabdominal days 3, 5, 7, 9", "result": 100, "unit": "%"}
    ]}
  ]
}
